Laboratory results from patent US20250296971A1, “GASTRIC INHIBITORY PEPTIDE RECEPTOR LIGANDS” (priority 2021, published 2025).
Like-named read-outs stand apart in the source and are kept apart here. *1 amine or outer side, *2 acyl side, *3 side chain or, on linkers, in order; H or OH if unused. Where a SMILES comes first, the peptide text is derived from it. Bridges are numbered along the chain shown (N, C = ends). [ ]: non-standard residue; d: D form. The star is where a group is joined. X5 = NC(=O)[C@H](CCCCNC(=O)CN1CCN(CC(=O)O)CCN(CC(=O)O)CCN(CC(=O)O)CC1)NC(=O)CCC(=O)NCCCOCCOCCOCCCN*; X19 = O=C(O)CN1CCN(CC(=O)O)CCN(CC(=O)N2CCN(Cc3cc(C[*:1])cc(C[*:2])c3)CC2)CCN(CC(=O)O)CC1; X3 = O=C(O)CN1CCN(CC(=O)O)CCN(CC(=O)NCCCOCCOCCOCCCN*)CCN(CC(=O)O)CC1; Trp(5-Cl) = N[C@@H](Cc1c[nH]c2ccc(Cl)cc12)C(=O)O; Pyridine(2,6-diCH2) = c1cc(C[*:1])nc(C[*:2])c1; 1Nal = N[C@@H](Cc1cccc2ccccc12)C(=O)O; mXylylene = c1cc(C[*:1])cc(C[*:2])c1; X7 = c1cc(CSCCN[*:2])cc(C[*:1])c1; Hyp = O=C(O)[C@@H]1C[C@@H](O)CN1; Suc = O=C(CCC(=O)[*:2])[*:1]; αMeS = C[C@](N)(CO)C(=O)O; Thp = NC1(C(=O)O)CCOCC1; Aib = CC(C)(N)C(=O)O

Biological target: T1, GIPR (CHO-K1-hGIPR cells) (Homo sapiens, UniProt P48546)
T1 construct: host or cells: CHO-K1
T1 sequence (P48546 22-466): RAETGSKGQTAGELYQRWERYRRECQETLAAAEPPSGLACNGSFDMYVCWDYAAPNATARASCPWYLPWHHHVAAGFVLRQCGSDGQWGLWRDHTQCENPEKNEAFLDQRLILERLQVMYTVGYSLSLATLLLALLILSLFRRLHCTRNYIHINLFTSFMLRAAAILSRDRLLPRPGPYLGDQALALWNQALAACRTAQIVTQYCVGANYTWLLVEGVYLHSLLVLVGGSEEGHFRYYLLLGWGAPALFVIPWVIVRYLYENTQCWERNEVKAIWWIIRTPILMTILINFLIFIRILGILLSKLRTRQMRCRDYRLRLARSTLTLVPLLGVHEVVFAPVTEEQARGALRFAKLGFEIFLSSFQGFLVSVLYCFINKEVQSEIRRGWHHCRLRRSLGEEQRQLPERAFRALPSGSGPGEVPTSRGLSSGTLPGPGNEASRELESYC
Assay: FACS binding assay
Details: read-out: pIC50 Category (converted)
Method in brief: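 Median fluorescence in the APC channel, measured on washed CHO-K1 cells overexpressing human GIPR, was fitted by four-parameter logistic regression against peptide concentration to yield EC50 or IC50 values. Secondary labelling used APC-streptavidin (1 μg/mL, 30 min, ice).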

[1] = competition with 20 nM GIP-057, 4° C., 1 hour
[2] = competition with 20 nM GIP-057, 4° C. for 1 hour

Row | IC50 [1] | IC50 [2] | Structure (SMILES)
1 | < 10 nM | – | CC[C@H](C)[C@@H]1NC(=O)[C@H](CC(C)C)NC(=O)[C@](C)(CO)NC(=O)[C@@H](NC(=O)[C@@H](CC(C)C)NC(=O)[C@H](CCC(=O)O)NC(=O)[C@@H]2CCCN2C(=O)[C@H](Cc2c[nH]c3ccc(Cl)cc23)NC(=O)[C@H](Cc2c[nH]c3ccccc23)NC(=O)[C@H](CC(=O)O)NC(=O)CCC(=O)NCCCOCCOCCOCCCNC(=O)CN2CCN(CC(=O)O)CCN(CC(=O)O)CCN(CC(=O)O)CC2)CSCc2cccc(c2)CSCCNC1=O [GIP-101, DOTA-Ttds-Asp-Trp-5Clw-Pro-Glu-leu-[Cys(3MeBn)-Ams-Leu-Ile-AET]] ({X3-Suc}-DW[Trp(5-Cl)]PE[dL]C[αMeS]LI; linker 7-C via X7)
2 | – | 10 to 79.4 nM | CC[C@H](C)[C@@H]1NC(=O)[C@H](CC(C)C)NC(=O)C2(CCOCC2)NC(=O)[C@@H](NC(=O)[C@@H](CC(C)C)NC(=O)[C@H](Cc2c[nH]c3ccccc23)NC(=O)[C@@H]2C[C@@H](O)CN2C(=O)[C@H](Cc2c[nH]c3ccc(Cl)cc23)NC(=O)[C@H](Cc2c[nH]c3ccccc23)NC(=O)[C@H](CC(=O)O)NC(C)=O)CSCc2cccc(n2)CSC[C@@H](C(N)=O)NC1=O [GIP-397, Ac-Asp-Trp-5Clw-Hyp-Trp-leu-[Cys(2Lut)-Thp-Leu-Ile-Cys]-NH2] (Ac-DW[Trp(5-Cl)][Hyp]W[dL]C[Thp]LIC-NH2; linker 7-11 via Pyridine(2,6-diCH2))
3 | – | < 10 nM | CC[C@H](C)[C@@H]1NC(=O)[C@H](CC(C)C)NC(=O)C2(CCOCC2)NC(=O)[C@@H](NC(=O)[C@@H](CC(C)C)NC(=O)[C@H](CCC(=O)O)NC(=O)[C@@H]2C[C@@H](O)CN2C(=O)[C@H](Cc2c[nH]c3ccc(Cl)cc23)NC(=O)[C@H](Cc2c[nH]c3ccc(Cl)cc23)NC(=O)[C@H](CC(=O)O)NC(C)=O)CSCc2cccc(n2)CSC[C@@H](C(N)=O)NC1=O [GIP-379, Ac-Asp-5Clw-5Clw-Hyp-Glu-leu-[Cys(2Lut)-Thp-Leu-Ile-Cys]-NH2] (Ac-D[Trp(5-Cl)][Trp(5-Cl)][Hyp]E[dL]C[Thp]LIC-NH2; linker 7-11 via Pyridine(2,6-diCH2))

Second part, the compound before the results:

Row | Structure (SMILES) | IC50 [1] | IC50 [2]
4 | CC[C@H](C)[C@@H]1NC(=O)[C@H](CC(C)C)NC(=O)C2(CCOCC2)NC(=O)[C@@H](NC(=O)[C@@H](CC(C)C)NC(=O)[C@H](CCC(=O)O)NC(=O)[C@@H]2C[C@@H](O)CN2C(=O)[C@H](Cc2c[nH]c3ccc(Cl)cc23)NC(=O)[C@H](Cc2c[nH]c3ccccc23)NC(=O)[C@H](CC(=O)O)NC(C)=O)CSCc2cc(cc(CN3CCN(C(=O)CN4CCN(CC(=O)O)CCN(CC(=O)O)CCN(CC(=O)O)CC4)CC3)c2)CSC[C@@H](C(N)=O)NC1=O [GIP-145, Ac-Asp-Trp-5Clw-Hyp-Glu-leu-[Cys(tMeBn(DOTA-PP))-Thp-Leu-Ile-Cys]-NH2] (Ac-DW[Trp(5-Cl)][Hyp]E[dL]C[Thp]LIC-NH2; linker 7-11 via X19) | 10 to 79.4 nM | –
5 | CC[C@H](C)[C@@H]1NC(=O)[C@H](CC(C)C)NC(=O)[C@H](C)NC(=O)[C@@H](NC(=O)[C@H](CC(C)C)NC(=O)[C@H](CCC(=O)O)NC(=O)[C@@H]2CCCN2C(=O)[C@H](C)NC(=O)[C@H](Cc2c[nH]c3ccccc23)NC(=O)[C@H](CC(=O)O)NC(=O)[C@H](Cc2ccc(O)cc2)NC(=O)[C@@H](N)CCSC)CSCc2cccc(c2)CSC[C@@H](C(N)=O)NC1=O [GIP-334] (H-MYDWAPELCALIC-NH2; linker 9-13 via mXylylene) | – | > 1000 nM
6 | CC[C@H](C)[C@@H]1NC(=O)[C@H](CC(C)C)NC(=O)C(C)(C)NC(=O)[C@@H](NC(=O)[C@H](CC(C)C)NC(=O)[C@H](CCC(=O)O)NC(=O)[C@@H]2CCCN2C(=O)[C@H](Cc2cccc3ccccc23)NC(C)=O)CSCc2cccc(c2)CSC[C@@H](C(=O)NCCCOCCOCCOCCCNC(=O)CCC(=O)N[C@@H](CCCCNC(=O)CN2CCN(CC(=O)O)CCN(CC(=O)O)CCN(CC(=O)O)CC2)C(N)=O)NC1=O [GIP-298, Ac-1Ni-Pro-Glu-Leu-[Cys(3MeBn)-Aib-Leu-Ile-Cys]-Ttds-Lys(DOTA)-NH2] (Ac-[1Nal]PELC[Aib]LIC-X5; linker 5-9 via mXylylene) | – | > 1000 nM
